Key:
Format in all cases: in vivo
[1] = tested on: Abutilon theophrasti (ABUTH); test: Post-emergence herbicidal action
Protocol: (§1) Seeds of monocotyledonous and dicotyledonous weeds and crop plants are placed in sandy loam in plastic or organic plant pots, covered with soil and cultivated in a greenhouse under controlled growth conditions. 2 to 3 weeks after sowing, the test plants are treated at the one-leaf stage. The compounds of the invention, formulated in the form of wettable powders (WP) or as emulsion concentrates (EC), are then sprayed onto the green parts of the plants as aqueous suspension or emulsion with addition of 0.5% additive at a water application rate of 600 l/ha (converted). After the test plants have been kept in the greenhouse under optimum growth conditions for about 3 weeks, the activity of the preparations is rated visually in comparison to untreated controls. For example, 100% activity=the plants have died, 0% activity=like control plants.
(§2) The abbreviations used here have the following meanings: • ABUTH Abutilon theophrasti • AMARE Amaranlhus retroflexus • CYPES Cyperus serotinus • ECHCGEchinocloa crus galli • LOLRI Lolium rigidum Gaudin • PHBPU Pharbitis purpurcum • SETVI Setaria viridis • VERPE Veronica persica • ALOMY Alopccurus myosuroides • AVEFA Avena fatua • DIGSA Digitaria sanguinalis • LOLMU Lolium multiflorum • MATIN Matricaria inodora • POLCO Polygonum convolvulus • STEME Stellaria media • VIOTR Viola tricolor
(§3) The compounds according to the invention were tested by the post-emergence and pre-emergence methods under the conditions described above for comparative purposes with the structurally closest compounds known from WO 2005/089551 A1 (D1).

[2] = tested on: Alopecurus myosuroides (ALOMY); test: Post-emergence herbicidal action
Protocol: as §1, §2, §3

Avena fatua (AVEFA) [3] = test: Post-emergence herbicidal action
Protocol: as §1, §2, §3

[4] = tested on: Echinochloa crus-galli (ECHCG); test: Post-emergence herbicidal action
Protocol: as §1, §2, §3

[5] = tested on: Lolium multiflorum (LOLMU); test: Post-emergence herbicidal action
Protocol: as §1, §2, §3

[6] = tested on: Matricaria inodora (MATIN); test: Post-emergence herbicidal action
Protocol: as §1, §2, §3

[7] = tested on: Polygonum convolvulus (POLCO); test: Post-emergence herbicidal action
Protocol: as §1, §2, §3

Setaria viridis (SETVI) [8] = test: Post-emergence herbicidal action
Protocol: as §1, §2, §3

Stellaria media (STEME) [9] = test: Post-emergence herbicidal action
Protocol: as §1, §2, §3

[10] = tested on: Amaranthus retroflexus (AMARE); test: Post-emergence herbicidal action; conditions: 320 g/ha, visual rating after about 3 weeks vs untreated controls, 100% = plants have died
Protocol: as §1, §2

[11] = tested on: Pharbitis purpurea (PHBPU); test: Post-emergence herbicidal action; conditions: 320 g/ha, visual rating after about 3 weeks vs untreated controls, 100% = plants have died
Protocol: as §1, §2

Veronica persica (VERPE) [12] = test: Post-emergence herbicidal action; conditions: 320 g/ha, visual rating after about 3 weeks vs untreated controls, 100% = plants have died
Protocol: as §1, §2

Viola tricolor (VIOTR) [13] = test: Post-emergence herbicidal action; conditions: 320 g/ha, visual rating after about 3 weeks vs untreated controls, 100% = plants have died
Protocol: as §1, §2

[14] = tested on: Alopecurus myosuroides (ALOMY); test: Pre-emergence herbicidal action
Text: as §2
(§4) Seeds of monocotyledonous and dicotyledonous weed plants and crop plants are placed in plastic or organic plant pots and covered with soil. The compounds of the invention, formulated in the form of wettable powders (WP) or as emulsion concentrates (EC), are then applied onto the surface of the covering soil as aqueous suspension or emulsion with addition of 0.5% additive at a water application rate of 600 l/ha (converted). After the treatment, the pots are placed in a greenhouse and kept under good growth conditions for the trial plants. After about 3 weeks, the effect of the preparations is scored visually in comparison with untreated controls as percentages. For example, 100% activity=the plants have died, 0% activity=like control plants.
as §3

[15] = tested on: Echinochloa crus-galli (ECHCG); test: Pre-emergence herbicidal action
Text: as §2, §4, §3

[16] = tested on: Matricaria inodora (MATIN); test: Pre-emergence herbicidal action
Text: as §2, §4, §3

[17] = tested on: Polygonum convolvulus (POLCO); test: Pre-emergence herbicidal action
Text: as §2, §4, §3

Setaria viridis (SETVI) [18] = test: Pre-emergence herbicidal action
Text: as §2, §4, §3

Stellaria media (STEME) [19] = test: Pre-emergence herbicidal action
Text: as §2, §4, §3

Viola tricolor (VIOTR) [20] = test: Pre-emergence herbicidal action
Text: as §2, §4, §3

[21] = tested on: Abutilon theophrasti (ABUTH); test: Pre-emergence herbicidal action; conditions: 320 g/ha, visual scoring after about 3 weeks vs untreated controls, 100% = plants have died
Text: as §2, §4

[22] = tested on: Amaranthus retroflexus (AMARE); test: Pre-emergence herbicidal action; conditions: 320 g/ha, visual scoring after about 3 weeks vs untreated controls, 100% = plants have died
Text: as §2, §4

Avena fatua (AVEFA) [23] = test: Pre-emergence herbicidal action; conditions: 320 g/ha, visual scoring after about 3 weeks vs untreated controls, 100% = plants have died
Text: as §2, §4

[24] = tested on: Lolium multiflorum (LOLMU); test: Pre-emergence herbicidal action; conditions: 320 g/ha, visual scoring after about 3 weeks vs untreated controls, 100% = plants have died
Text: as §2, §4

[25] = tested on: Pharbitis purpurea (PHBPU); test: Pre-emergence herbicidal action; conditions: 320 g/ha, visual scoring after about 3 weeks vs untreated controls, 100% = plants have died
Text: as §2, §4

Veronica persica (VERPE) [26] = test: Pre-emergence herbicidal action; conditions: 320 g/ha, visual scoring after about 3 weeks vs untreated controls, 100% = plants have died
Text: as §2, §4

[27] = tested on: harmful plants such as Abutilon theophrasti, Alopecurus myosuroides, Amaranthus retroflexus, Avena fatua, Echinochloa crus-galli, Matricaria inodora, Pharbitis …; test: Post-emergence herbicidal action, summary in text; conditions: post-emergence treatment
Protocol: as §1
In this case, for example, in the post-emergence process, the compounds No. 1-001 and 111-001 have very good herbicidal activity (80% to 100% herbicidal action) against harmful plants such as Abutilon theophrasti, Alopecurus myosuroides, Amaranthus retroflexus, Avena fatua, Echinochloa crus-galli, Matricaria inodora, Pharbitis purpurea, Setaria viridis, Stellaria media, Veronica persica and Viola tricolor at an application rate of 0.32 kg of active substance or less per hectare. At the same time, some compounds according to the invention leave graminaceous crops such as barley, wheat, rye, millet/sorghum, maize, rice or sugarcane virtually undamaged when applied by the post-emergence method, even at high active compound dosages. Some substances are additionally also benign to dicotyledonous crops such as soya, cotton, oilseed rape or sugarbeet.

[28] = tested on: harmful plants such as Alopecurus myosuroides, Amaranthus retroflexus, Avena fatua, Echinochloa crus-galli, Matricaria inodora, Pharbitis purpurea, Polygonum …; test: Pre-emergence herbicidal action, summary in text; conditions: pre-emergence treatment
Text: as §4
At the same time, some compounds according to the invention leave graminaceous crops such as barley, wheat, rye, millet/sorghum, maize, rice or sugarcane virtually undamaged when applied by the pre-emergence method, even at high active compound dosages. Some compounds are additionally also benign to dicotyledonous crops such as soya, cotton, oilseed rape or sugarbeet.

[29] = 80 g of a.i./ha, comparative test
[30] = 320 g/ha, visual rating after about 3 weeks vs untreated controls, 100% = plants have died
[31] = 320 g/ha, visual scoring after about 3 weeks vs untreated controls, 100% = plants have died

Cn1nc(C(F)(F)F)cc1Oc1nc(C2CC2)cc(-n2cc(C(F)(F)F)cn2)n1 [III-001]
Herbicidal action against ABUTH [1, 29]: 90%
Post-emergence action ABUTH [1, 30]: 90%
Herbicidal action against ALOMY [2, 29]: 70%
Post-emergence action ALOMY [2, 30]: 90%
Herbicidal action against AVEFA (Avena fatua (AVEFA) [3]; [29]): 80%
Post-emergence action AVEFA (Avena fatua (AVEFA) [3]; [30]): 90%
Herbicidal action against ECHCG [4, 29]: 80%
Post-emergence action ECHCG [4, 30]: 90%
Herbicidal action against LOLMU [5, 29]: 70%
Post-emergence action LOLMU [5, 30]: 90%
Herbicidal action against MATIN [6, 29]: 80%
Post-emergence action MATIN [6, 30]: 90%
Herbicidal action against POLCO [7, 29]: 90%
Post-emergence action POLCO [7, 30]: 90%
Herbicidal action against SETVI (Setaria viridis (SETVI) [8]; [29]): 90%
Post-emergence action SETVI (Setaria viridis (SETVI) [8]; [30]): 100%
Herbicidal action against STEME (Stellaria media (STEME) [9]; [29]): 90%
Post-emergence action STEME (Stellaria media (STEME) [9]; [30]): 100%
Post-emergence action AMARE [10]: 100%
Post-emergence action PHBPU [11]: 100%
Post-emergence action VERPE (Veronica persica (VERPE) [12]): 100%
Post-emergence action VIOTR (Viola tricolor (VIOTR) [13]): 100%
Herbicidal action against ALOMY [14, 29]: 100%
Pre-emergence action ALOMY [14, 31]: 100%
Herbicidal action against ECHCG [15, 29]: 100%
Pre-emergence action ECHCG [15, 31]: 100%
Herbicidal action against MATIN [16, 29]: 100%
Pre-emergence action MATIN [16, 31]: 100%
Herbicidal action against POLCO [17, 29]: 90%
Pre-emergence action POLCO [17, 31]: 90%
Herbicidal action against SETVI (Setaria viridis (SETVI) [18]; [29]): 100%
Pre-emergence action SETVI (Setaria viridis (SETVI) [18]; [31]): 100%
Herbicidal action against STEME (Stellaria media (STEME) [19]; [29]): 90%
Pre-emergence action STEME (Stellaria media (STEME) [19]; [31]): 100%
Herbicidal action against VIOTR (Viola tricolor (VIOTR) [20]; [29]): 100%
Pre-emergence action VIOTR (Viola tricolor (VIOTR) [20]; [31]): 100%
Pre-emergence action ABUTH [21]: 90%
Pre-emergence action AMARE [22]: 90%
Pre-emergence action AVEFA (Avena fatua (AVEFA) [23]): 90%
Pre-emergence action LOLMU [24]: 90%
Pre-emergence action PHBPU [25]: 100%
Pre-emergence action VERPE (Veronica persica (VERPE) [26]): 100%
herbicidal action against harmful plants (in words) [27]: good herbicidal action
herbicidal action against harmful plants (in words) [28]: good herbicidal action

From patent publication US12509445B2, “Herbicidally active 4-cyclopropyl-6-[4-(trifluormethyl)pyrazol-1-yl)]pyrimidines” (Bayer Aktiengesellschaft, priority 2019, dated 2025)
